The results in this text go back to patent US20230081426A1, “COMPOUNDS AND METHODS FOR KRAS MODULATION AND INDICATIONS THEREFOR” (Plexxikon Inc., priority 2020, published 2023).

Experiment [1] has as its target T1, G12D-mutant human KRAS (amino acid residues 1-188) (Homo sapiens, UniProt P01116, G12D).
T1 construct: G12D or G12C-mutant human KRAS (amino acid residues 1-188) with FLAG tag; made in house; host or cells: E. coli
Nature of the experiment: KRAS Binding Disruption Assay (AlphaScreen; biotinylated KRpep-2d analogue or RAF1-RBD), G12D. The settings on record: KRAS G12D; geometric mean; read-out: KRAS GMean IC50 (uM) MUTATION: G12D. The method in brief: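 Compounds are titrated against 5-20 nM mutant KRAS and 5-20 nM of either a biotinylated KRpep-2d analogue or RAF1-RBD, incubated 1 h at 25° C. Disruption is detected as reduced Alpha signal after 1 h with donor and acceptor beads at 10 μg/mL.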

Experiment [2] has as its target T2, G12V-mutant human KRAS (amino acid residues 1-188) (Homo sapiens, UniProt P01116, G12V).
T2 construct: G12V-mutant human KRAS (amino acid residues 1-188) with FLAG tag was purified from E. coli; made in house; host or cells: E. coli
Nature of the experiment: KRAS Binding Competition Assay (AlphaScreen; biotinylated KRpep-2d analogue), G12V. Particulars: geometric mean, read-out: KRAS GMean IC50 (uM) MUTATION: G12V. (In general: Alpha assays give light when donor and acceptor beads are brought close together.)

In general, IC50 refers to the concentration needed to halve the response being measured. Regarding `CN1CCC[C@H]1COc1nc(N2[C@@H]3CC[C@H]2CNC3)c2ccc(-c3ccc4ccccc4c3)cc2n1` [P-0258, 4-((1R,5S)-3,8-diazabicyclo[3.2.1]octan-8-yl)-2-(((S)-1-methylpyrrolidin-2-yl)methoxy)-7-(naphthalen-2-yl)quinazoline], the IC50 in experiment [1] and in experiment [2] was 10 to 100 µM in each case.
Consider `CN1CCC[C@H]1COc1nc(N2[C@@H]3CC[C@H]2CNC3)c2ccc(-c3c(O)ccc4ccccc34)cc2n1` [P-0259, 1-(4-((1R,5S)-3,8-diazabicyclo[3.2.1]octan-8-yl)-2-(((S)-1-methylpyrrolidin-2-yl)methoxy)quinazolin-7-yl)naphthalen-2-ol], for which the IC50 in experiment [1] was in the range of 0.0001 to 10 µM; in experiment [2], 10 to 100 µM.
On the same counts, the results for `CN1CCC[C@H]1COc1nc(N2[C@@H]3CC[C@H]2CNC3)c2ccc(-c3cncc(Br)c3Cl)cc2n1` [P-0260, 4-((1R,5S)-3,8-diazabicyclo[3.2.1]octan-8-yl)-7-(5-bromo-4-chloropyridin-3-yl)-2-(((S)-1-methylpyrrolidin-2-yl)methoxy)quinazoline] are 10 to 100 µM and 10 to 100 µM.
On the same counts, the results for `Cc1ccnc(-c2ccc3c(N4[C@@H]5CC[C@H]4CNC5)nc(OC[C@@H]4CCCN4C)nc3c2)c1C` [P-0261, 4-((1R,5S)-3,8-diazabicyclo[3.2.1]octan-8-yl)-7-(3,4-dimethylpyridin-2-yl)-2-(((S)-1-methylpyrrolidin-2-yl)methoxy)quinazoline] are 100 to 1000 µM and 100 to 1000 µM.
As to `CN1CCC[C@H]1COc1nc(N2[C@@H]3CC[C@H]2CNC3)c2ccc(-c3cc(O)cc4cccnc34)cc2n1` [P-0262, 8-(4-((1R,5S)-3,8-diazabicyclo[3.2.1]octan-8-yl)-2-(((S)-1-methylpyrrolidin-2-yl)methoxy)quinazolin-7-yl)quinolin-6-ol], the 50% inhibitory concentration (IC50) in experiment [1] and in experiment [2] was 10 to 100 µM in each case.
For the compound `CN1CCC[C@H]1COc1nc(N2[C@@H]3CC[C@H]2CNC3)c2ccc(-c3cc([N+](=O)[O-])cc4ccccc34)cc2n1` [P-0263, 4-((1R,5S)-3,8-diazabicyclo[3.2.1]octan-8-yl)-2-(((S)-1-methylpyrrolidin-2-yl)methoxy)-7-(3-nitronaphthalen-1-yl)quinazoline], the IC50 in experiment [1] and in experiment [2] was 10 to 100 µM in each case.
With `CN1CCC[C@H]1COc1nc(N2[C@@H]3CC[C@H]2CNC3)c2ccc(-c3c(Cl)cccc3Cl)cc2n1` [P-0264, 4-((1R,5S)-3,8-diazabicyclo[3.2.1]octan-8-yl)-7-(2,6-dichlorophenyl)-2-(((S)-1-methylpyrrolidin-2-yl)methoxy)quinazoline], the IC50 in experiment [1] and in experiment [2] was 10 to 100 µM throughout.
For the compound `CN1CCC[C@H]1COc1nc(N2[C@@H]3CC[C@H]2CNC3)c2ccc(-c3cc(N)cc4ccccc34)cc2n1` [P-0265, 4-(4-((1R,5S)-3,8-diazabicyclo[3.2.1]octan-8-yl)-2-(((S)-1-methylpyrrolidin-2-yl)methoxy)quinazolin-7-yl)naphthalen-2-amine], the half-inhibitory concentration (IC50) in experiment [1] and in experiment [2] was 0.0001 to 10 µM each time.
Take `CN1CCC[C@H]1COc1nc(N2[C@@H]3CC[C@H]2CN(C(=O)NC2CCN(C4CCCCC4)C2)C3)c2ccc(-c3cc(O)cc4ccccc34)cc2n1` (stereo partly drawn) [P-0266, (1R,5S)-N-(1-cyclohexylpyrrolidin-3-yl)-8-(7-(3-hydroxynaphthalen-1-yl)-2-(((S)-1-methylpyrrolidin-2-yl)methoxy)quinazolin-4-yl)-3,8-diazabicyclo[3.2.1]octane-3-carboxamide]: the concentration for half-maximal inhibition (IC50) in experiment [1] and in experiment [2] was 10 to 100 µM each time.
In the case of `CN1CCC[C@H]1COc1nc(N2[C@@H]3CC[C@H]2CN(C(=O)CCCN2CCOCC2)C3)c2ccc(-c3cc(O)cc4ccccc34)cc2n1` [P-0267, 1-((1R,5S)-8-(7-(3-hydroxynaphthalen-1-yl)-2-(((S)-1-methylpyrrolidin-2-yl)methoxy)quinazolin-4-yl)-3,8-diazabicyclo[3.2.1]octan-3-yl)-4-morpholinobutan-1-one], the half-maximal inhibitory concentration (IC50) in experiment [1] and in experiment [2] was 10 to 100 µM throughout.
